Results from PubChem BioAssay AID2060623 (Molecular Pharmacology Branch, DTP, NCI, 2025).
Where “and” joins values, the source holds several entries; their conditions need not be identical. Identical values can stand only once.

System: 227483-062-R1-J1-PDC complex spheroids with HUVEC/MSC, viability
Assay: Anticancer human tumor 227483-062-R1-J1-PDC patient-derived pancreatic carcinoma cell line growth inhibition [CLK]
Settings: for viability, T/C: stronger effect = lower value
Source text: A high-throughput screen of multi-cell type tumor spheroids was designed to identify active combinations of […] and targeted small molecules. Complex spheroids include a stromal component modeled by human endothelial cells (HUVEC) and fibroblasts modeled by human mesenchymal stem cells (MSCs). The concentration ranges selected for each drug and investigational agent were based upon clinically achievable concentrations if the clinical Cmax of the agent was known.
Compounds. The drugs and investigational agents: cirtuvivint (SM08502; NSC835563), CC-671 (NSC850746), vemurafenib (NSC761431), tapotoclax (NSC804041), sotorasib (NSC818433), adagrasib (NSC831453), MRTX-1133 (NSC836407), BAY2416964 (NSC825713), copanlisib (NSC816437), inavolisib (NSC800729), abemaciclib (NSC768073), osimertinib (NSC779217), entinostat (NSC756642), eltanexor (KPT-8602, NSC794443), venetoclax (NSC766270), ceralasertib (NSC777638), bortezomib (NSC756655), olaparib (NSC753686), talazoparib (NSC767125), alisertib (NSC759677), peposertib (NSC802822), gemcitabine (NSC613327), 5-fluorouracil (NSC19893), SN-38 (NSC673596), oxaliplatin (NSC266046), paclitaxel (NSC125973), and doxorubicin (NSC123127), were obtained from the National Cancer Institute (NCI) Developmental Therapeutics Program Chemical Repository. The FDA-approved anticancer drug set is available from the Developmental Therapeutics Program at https://dtp.cancer.gov/organization/dscb/obtaining/available plates.htm. […] The stock solutions were prepared in dimethyl sulfoxide (DMSO, Sigma-Aldrich, St. Louis, MO, cat. D2650), except for the platinum complexes which were prepared in saline (Quality Biological, Gaithersburg, MD, cat. 114-055-101), at 800-fold the tested concentration and stored at -70 degrees C prior to their use. All drugs and investigational agents were tested over a range starting from a high concentration at or near the clinical Cmax and decreasing in half-log increments. If the clinical Cmax for an agent had not been determined, the highest concentration tested was 10 microM.
Cell Culture. All cells were maintained in an incubator at 37 degrees C and 5% CO2 with 95% humidity. The PDC lines were cultured according to standard operating procedures established by the NCI PDMR. Briefly, all PDCs were thawed and cultured in Matrigel-coated flasks prepared with a working solution of 1X Ham's F-12 nutrient mix, without supplementation (Invitrogen, Waltham, MA, cat. 11765054), 100 U/mL penicillin-streptomycin (Invitrogen, cat. 15140122), and 2.5% Matrigel (Corning Inc., Corning, NY, cat. 354248) for the first three passages. The 947758-054-R-J2-PDC line was cultured in 6B/Colon 1A media, which includes advanced DMEM/F-12 (Thermo Fisher Scientific, cat. 12634028), 10 mM HEPES (Thermo Fisher Scientific, cat. 15630080), 1X GlutaMAX supplement (Thermo Fisher Scientific, cat. 35050061), 0.1 mg/mL primocin (InvivoGen, cat. ant-pm-2), 10% defined fetal bovine serum, heat inactivated (HyClone Laboratories Inc., cat. SH30070.03HI), 1.25 mM N-Acetyl-L-cysteine (Sigma-Aldrich, cat. A9165), 10 mM nicotinamide (Sigma-Aldrich, cat. N0636), 1X B-27 supplement (Thermo Fisher Scientific, cat. 17504044), 1X N-2 supplement (Thermo Fisher Scientific, cat. 17502048), and 10 microM Y-27632 dihydrochloride (Tocris Bioscience, cat. 1254). The 876862-298-R-J1-PDC was cultured in 6E media, which includes all 6B/Colon 1A media components plus 50% L-WRN conditioned media (ATCC, cat. CRL-3276), 50 ng/mL recombinant human EGF recombinant protein (hEGF; Thermo Fisher Scientific, cat. PHG0311), 10 ng/mL recombinant human fibroblast growth factor 10 (hGFG-10; PeproTech, cat. 100-26), 1 ng/mL recombinant human fibroblast growth factor 2 (hFGF-2; PeproTech, cat. 100-18B), and 1 µM prostaglandin E2 (PGE2; Tocris, cat. 2296). The 227483-062-R1-J1-PDC line was cultured in Panc media, containing all 6E components except hFGF-2, with the addition of 500 nM SB-431542 (Selleckchem, cat. S1067) and 10 nM gastrin (Tocris, cat. 3006). […]
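Further: spheroids exposed to compounds for seven days before readout.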
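Wherever viability, T/C is given: percent of DMSO vehicle control luminescence as 100% viability.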

| Compound | viability, T/C (compound 0.0316 µM) | viability, T/C (compound 0.1 µM) | viability, T/C (compound 0.316 µM) | viability, T/C (compound 1 µM) | viability, T/C (compound 3.16 µM) | viability, T/C (compound 10 µM) | IC50 (curve of compound) | viability, T/C (compound 0.00316 µM) | viability, T/C (compound 0.01 µM) | further results |
| --- | --- | --- | --- | --- | --- | --- | --- | --- | --- | --- |
| C=C(F)C(=O)N1CCN(c2nc(OCC3CCCN3C)nc3c2CCN(c2cccc4cccc(Cl)c24)C3)CC1CC#N (stereo not given) | 107% and 89.9% | 108% and 97.9% | 109% and 91.9% | 113% and 122% | 86.3% and 89% | 19% and 28% | 5880 nM and 6600 nM | – | – | – |
| C=CC(=O)N1CCN(c2nc(=O)n(-c3c(C)ccnc3C(C)C)c3nc(-c4c(O)cccc4F)c(F)cc23)C(C)C1 (stereo not given) | 88.6% and 88% | 83.2% and 92.8% | 86% and 85.4% | 95.2% and 125% | 110% and 104% | 109% and 95.8% | > 10000 nM | – | – | – |
| C=CC(=O)Nc1cc(Nc2nccc(-c3cn(C)c4ccccc34)n2)c(OC)cc1N(C)CCN(C)C | – | – | – | – | – | – | > 300 nM | – | – | viability, T/C (compound 0.000949 µM): 99.8% and 83%; viability, T/C (compound 0.003 µM): 104% and 92.1%; viability, T/C (compound 0.00949 µM): 103% and 119%; viability, T/C (compound 0.03 µM): 113% and 109%; viability, T/C (compound 0.0949 µM): 95.1% and 102%; viability, T/C (compound 0.3 µM): 84.3% and 81.2% |
| CC(C)CC(NC(=O)C(Cc1ccccc1)NC(=O)c1cnccn1)B(O)O (stereo not given) | – | – | – | – | – | – | 1.57 nM and 1.5 nM | – | – | viability, T/C (compound 0.000949 µM): 86.6% and 81.9%; viability, T/C (compound 0.003 µM): 2.59% and 1.33%; viability, T/C (compound 0.00949 µM): 0.56% and 0.57%; viability, T/C (compound 0.03 µM): 2.03% and 0.48%; viability, T/C (compound 0.0949 µM): 0.64% and 0.38%; viability, T/C (compound 0.3 µM): 0.96% and 0.35% |
| CCCS(=O)(=O)Nc1ccc(F)c(C(=O)c2c[nH]c3ncc(-c4ccc(Cl)cc4)cc23)c1F | 101% and 92.4% | 128% and 96.7% | 106% and 92.3% | 125% and 99% | 129% and 98.8% | 107% and 80.7% | > 10000 nM | – | – | – |
| CCN1CCN(Cc2ccc(Nc3ncc(F)c(-c4cc(F)c5nc(C)n(C(C)C)c5c4)n3)nc2)CC1 | 92.8% and 79.4% | 98.2% and 76.2% | 95.1% and 73.4% | 88.3% and 82% | – | – | > 1000 nM | 93.6% and 83.6% | 110% and 94.8% | – |
| CCc1c2c(nc3ccc(O)cc13)-c1cc3c(c(=O)n1C2)COC(=O)[C@]3(O)CC | 79.4% and 58.8% | 55.3% and 49% | 54.1% and 53% | 36.8% and 33.1% | – | – | 207 nM and 71.7 nM | 77.7% and 88.3% | 94.4% and 86.2% | – |
| CN1CCN(c2cc(C(=O)Nc3cc4cc(-c5cnn(C)c5)ccc4cn3)ccn2)CC1 | 95.7% [middle of 12 runs] | 62.8% [middle of 12 runs] | 5.79% [middle of 12 runs] | 1.97% [middle of 12 runs] | 3.33% [middle of 12 runs] | 2.87% [middle of 12 runs] | – | – | – | IC50 (compound alone, run of 09/18/2023): 129 nM [middle of 11 runs] |
| CNC(=O)c1ccc(Nc2nc(OC3CCCC3)c3c(-c4ccc5nc(C)oc5c4)c[nH]c3n2)c(OC)c1 | 96.1% [middle of 12 runs] | 88.2% [middle of 12 runs] | 85.1% [middle of 12 runs] | 61.6% [middle of 11 runs] | 45.4% [middle of 12 runs] | 42.9% [middle of 12 runs] | – | – | – | – |
| COC1C=CCC(C)C(C)S(=O)(=O)NC(=O)c2ccc3c(c2)N(CC2CCC21)CC1(CCCc2cc(Cl)ccc21)CO3 (stereo not given) | 93.6% and 86.3% | 93.9% and 81.1% | 95.4% and 95.6% | 106% and 91.1% | 97.3% and 83.1% | 25.9% and 22.8% | 6770 nM and 5960 nM | – | – | – |
| COc1c(OCCCN2CCOCC2)ccc2c3n(c(=NC(=O)c4cnc(N)nc4)nc12)CCN3 | 85% and 72.6% | 56.2% and 75.9% | 55.8% and 59.5% | 45.3% and 40.5% | – | – | > 1000 nM and 575 nM | 92.4% and 100% | 90.7% and 83.8% | – |
| Cn1ncnc1[C@H]1c2n[nH]c(=O)c3cc(F)cc(c23)N[C@@H]1c1ccc(F)cc1 | 110% and 101% | 104% and 98% | – | – | – | – | > 100 nM | 91.9% and 102% | 120% and 97% | viability, T/C (compound 0.000316 µM): 93.6% and 98%; viability, T/C (compound 0.001 µM): 127% and 115% |
| NC(=O)C(=Cn1cnc(-c2cc(C(F)(F)F)cc(C(F)(F)F)c2)n1)c1cncnc1 | – | – | – | – | – | – | 911 nM and 313 nM | – | – | viability, T/C (compound 0.00949 µM): 78.8% and 82.5%; viability, T/C (compound 0.03 µM): 85.2% and 85.8%; viability, T/C (compound 0.0949 µM): 83.2% and 62.7%; viability, T/C (compound 0.3 µM): 87.1% and 54.1%; viability, T/C (compound 0.949 µM): 48.8% and 28%; viability, T/C (compound 3 µM): 15% and 10.8% |
